Here are results for one compound from paper PMC8767159, “Multiparameter Optimization of Trypanocidal Cruzain Inhibitors With In Vivo Activity and Favorable Pharmacokinetics” (Frontiers in Pharmacology, 2022).

A short description of this data set: Acute toxicity and open-field test in female Swiss mice. The format is in vivo. The protocol: Thirty-day-old female Swiss mice weighing 20–25 g and procured from the Center for the Development of Experimental Models for Medicine and Biology (CEDEME/UNIFESP) served as the subjects for these experiments. […] Rodent chow and water were available ad libitum throughout the experiments.
The compound, solubilized in 10% DMSO aqueous solution, was administered orally in a single dose of 150 and 300 mg/kg of body weight in female Swiss mice. Parameters related to behavior, autonomic functions, neurological activity, and mortality were assessed as toxicity signs. Soon after the administration of the compound, mice were placed in a circular open-field arena (40 cm diameter) with 50-cm-high walls to assess motor deficits. […] After this period, toxicity signs were assessed once a day for two consecutive weeks. The reference drug BZ at 150 mg/kg and vehicle (10% DMSO) were administered as controls.

Setting [1] is: single oral dose 150 and 300 mg/kg, 2 weeks of observation.

Consider `NC(=O)Cn1c(CCNC(=O)COc2ccccc2)nc2ccccc21` [Compound 28], for which the “Locomotor deficits (open-field test)” value (oral 150 and 300 mg/kg) is reported as “did not cause locomotor deficits”. Also, under setting [1], the Mortality result was “no mortality” and the “Toxicity signs (behavior, autonomic functions, neurological activity)” value was “No toxicity signs”.
